From patent US12398139B2, “Modulators of AMPA receptor signaling” (Centre for Addiction and Mental Health, priority 2019, dated 2025)
Structures can show the parent of a compound that is named as a salt.

Legend:
[1] = system: HEK-293 cells expressing GAPDH and GluR2; experiment: AMPA mediated cell-death assay (CellTox Green Cytotoxicity Assay); type: cell-based; details: Homo sapiens, HEK293, AMPA 500 μM, CTZ 100 μM, CellTox Green fluorescence, read-out: Potency, inhibition of AMPA-mediated neurotoxicity (IC50, concentration at which 50% of cell death was prevented)
Procedure: The ability of compounds to inhibit AMPA-mediated neurotoxicity was determined using the CellTox™ Green Cytotoxicity Assay (G8743) kit from Promega. In this assay, GAPDH and GluR2 are expressed in HEK-293 cells. AMPA (500 μM) was added to induce an AMPAR-mediated cell death signalling cascade. This is initiated by the GAPDH-GluR2 complex formation followed by the nuclear translocation of the complex, where it activates the p53-mediated cell death pathway. The presence of a compound which can block dimerization of GAPDH and GluR2 will prevent the nuclear translocation and the cell death and, thus this assay is an effective measure of the ability of a compound to prevent AMPA-mediated neurotoxicity and thus show therapeutic benefit in the treatment of MS.
The assay was performed as per the manufacture's instruction. Briefly, 293 cells stably expressing GluR1 and GluR2VENUS were transfected with pcDNA-RluC-GAPDH. AMPA (500 μM) were added to induce the cell death. CTZ (100 μM) was added to prevent AMPAR desensitization. Candidate molecules were added before the AMPA treatment to test its protective effect. Untreated cells and AMPA treated group were used as negative and positive control respectively. CellTox™ Green Reagent (˜5×) was then added to achieve a final concentration of 1× and cells were incubated at room temperature for 15 minutes (shielded from ambient light). The fluorescence intensity at 485-500 nmEx/520-530 nmEm was then measured and calculated as the percentage value of the positive control. The concentration at which 50% of cell death was prevented (IC50) was determined for each compound.
The potency was measured using the cell death assay described above.

GluR2/GAPDH complex = target: T1, GluR2/GAPDH complex (Homo sapiens, UniProt P42262); experiment: Surface plasmon resonance target engagement assay (competitive GluR2-Venus affinity with GAPDH); details: SPR, captured GluR2-VENUS, 100 nM GAPDH peptide, compound top concentration 10 μM; read-out: Potency, GluR2 Binding Affinity (competitive inhibition of GluR2-GAPDH interaction)
T1 construct: host or cells: HEK293 cells stably transfected with GluR2-VENUS (lysate)
Procedure: This is one of the most commonly used techniques to study modulation of protein-protein interactions by small molecule ligands, providing real-time measurement of binding affinities and association/dissociation kinetics of complexes (compound/protein) in a label-free environment. The ability of our lead compound to disrupt the interaction of GluR2/GAPDH complex was measured by the binding affinity. Compounds were analyzed for competitive GluR2-Venus protein affinity (with GAPDH recombinant protein) using a Reichert 2SPR system. The surface was first charged with nickel (500 μM NiCl2 in HBS-P buffer for 300 s at a flow rate of 5 μL/min). The dextran surface was then activated with a 1:1 mixture of N-ethyl-N-dimethylaminopropylcarbodiimide (EDC) and N-hydroxysuccinimide (NHS) on line for final concentrations of EDC and NHS of 37.5 mg/mL and 5.8 mg/mL, respectively, for 420 s at a flow rate of 25 μL/min. Anti-VENUS antibody was first immobilized by capture onto a 500 KDa CM Dextran sensor chip (Reichert), proceeded by activation of the carboxymethylated dextran surface for mild amine coupling, followed by a final blocking injection of 1 M ethanolamine, pH 8.5. GluR2-VENUS (lysate of HEK293 cells stably transfected with GluR2-VENUS) was then captured for 900 s at a flow rate of 25 μL/min followed by a final blocking injection of 2% BSA, for 300 s at a flow rate of 5 μL/min.
The surface plasmon resonance affinity assay was carried out in a PBS buffer consisting of 0.05% Tween 20. For affinity measurements, compound solutions were prepared using ten three-fold serial dilutions in running buffer from a 10 μM top concentration (prepared from DMSO stocks) along with a zero (running buffer) control, mixed with 100 nM GAPDH peptide (Sigma Aldrich). A flow rate of 30 μl/min was used with a 420 s contact time (using high performance injection parameters) followed by a 120 s dissociation phase. Results were analyzed by subtracting the signals of the reference surface from the signals for the protein-bound surfaces and performing a solvent correction. Competitive binding responses were normalized throughout the screen to the percentage of inhibition of the respective small molecule compound. Three independent experiments were performed.
The binding affinity was measured using the surface plasmon resonance assay described above.

T1 sequence (P42262 25-883, species assumed, one chain of several): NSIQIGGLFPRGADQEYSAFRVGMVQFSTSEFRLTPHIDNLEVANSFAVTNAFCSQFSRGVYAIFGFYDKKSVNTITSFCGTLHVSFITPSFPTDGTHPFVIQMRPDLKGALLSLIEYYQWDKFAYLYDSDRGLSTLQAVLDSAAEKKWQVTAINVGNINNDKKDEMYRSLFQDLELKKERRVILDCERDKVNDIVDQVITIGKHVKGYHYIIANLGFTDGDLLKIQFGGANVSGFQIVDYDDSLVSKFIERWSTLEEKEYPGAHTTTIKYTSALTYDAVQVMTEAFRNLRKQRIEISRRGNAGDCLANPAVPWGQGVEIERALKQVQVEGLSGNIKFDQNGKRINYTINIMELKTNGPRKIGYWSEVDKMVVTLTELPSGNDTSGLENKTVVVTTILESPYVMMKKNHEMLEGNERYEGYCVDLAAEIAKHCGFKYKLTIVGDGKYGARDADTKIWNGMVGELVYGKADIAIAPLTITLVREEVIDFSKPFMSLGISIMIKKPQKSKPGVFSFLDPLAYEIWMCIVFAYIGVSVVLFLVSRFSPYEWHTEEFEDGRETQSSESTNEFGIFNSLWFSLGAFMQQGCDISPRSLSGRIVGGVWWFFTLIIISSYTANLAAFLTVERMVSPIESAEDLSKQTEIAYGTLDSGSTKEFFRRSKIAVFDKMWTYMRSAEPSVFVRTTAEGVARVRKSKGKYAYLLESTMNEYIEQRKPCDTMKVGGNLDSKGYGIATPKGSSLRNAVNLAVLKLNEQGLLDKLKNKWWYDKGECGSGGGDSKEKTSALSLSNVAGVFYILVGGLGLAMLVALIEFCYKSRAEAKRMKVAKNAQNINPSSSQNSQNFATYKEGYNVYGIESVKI

Row | SMILES | IC50 (GluR2/GAPDH complex) | IC50 [1]
1 | Cc1ccc(Cn2cc3c(n2)CN(c2cccc(C(=O)N(C)C)c2)C3)cc1 [Compound 235, N,N-Dimethyl-3-(2-(4-methylbenzyl)-2,6-dihydropyrrolo[3,4-c]pyrazol-5(4H)-yl)benzamide] | 1.07 µM | 0.656 µM
2 | O=C(NC1CCCC1)c1cccc(N2Cc3cn(Cc4ccc(F)cc4)nc3C2)c1 [Compound 215, N-Cyclopentyl-3-(2-(4-fluorobenzyl)-2,6-dihydropyrrolo[3,4-c]pyrazol-5(4H)-yl)benzamide] | 0.048 µM | 0.0035 µM
3 | CN(C)C(=O)c1cncc(N2Cc3cn(Cc4cccc(F)c4)nc3C2)n1 [Compound 236, 6-(2-(3-Fluorobenzyl)-2,6-dihydropyrrolo[3,4-c]pyrazol-5(4H)-yl)-N,N-dimethylpyrazine-2-carboxamide] | 0.275 µM | 5 µM
4 | N#Cc1cncc(N2Cc3cn(Cc4ccc(F)cc4)nc3C2)n1 [Compound 245, 6-(2-(4-Fluorobenzyl)-2,6-dihydropyrrolo[3,4-c]pyrazol-5(4H)-yl)pyrazine-2-carbonitrile] | 0.206 µM | 0.771 µM
5 | CN(C)C(=O)c1cccc(N2Cc3cn(Cc4ccc(F)cc4)nc3C2)c1 [Compound 217, 3-(2-(4-Fluorobenzyl)-2,6-dihydropyrrolo[3,4-c]pyrazol-5(4H)-yl)-N,N-dimethylbenzamide] | 0.067 µM | 0.0067 µM
6 | CN(C)C(=O)c1cccc(N2Cc3cn(CC4CCCCC4)nc3C2)c1 [Compound 239, 3-(2-(Cyclohexylmethyl)-2,6-dihydropyrrolo[3,4-c]pyrazol-5(4H)-yl)-N,N-dimethylbenzamide] | 0.041 µM | 0.026 µM
7 | O=C(c1cccc(N2Cc3cn(Cc4ccc(F)cc4)nc3C2)c1)N1CCNCC1 [Compound 220, (3-(2-(4-Fluorobenzyl)-2,6-dihydropyrrolo[3,4-c]pyrazol-5(4H)-yl)phenyl)(piperazin-1-yl)methanone hydrochloride] | 0.085 µM | 0.015 µM
8 | CN(C)C(=O)c1ccc(N2Cc3cn(Cc4ccc(F)cc4)nc3C2)cc1 [Compound 246, 4-(2-(4-Fluorobenzyl)-2,6-dihydropyrrolo[3,4-c]pyrazol-5(4H)-yl)-N,N-dimethylbenzamide] | 0.44 µM | 0.0086 µM
9 | CN1CCN(C(=O)c2cccc(N3Cc4cn(Cc5ccc(F)cc5)nc4C3)c2)CC1 [Compound 218, (3-(2-(4-Fluorobenzyl)-2,6-dihydropyrrolo[3,4-c]pyrazol-5(4H)-yl)phenyl)(4-methylpiperazin-1-yl)methanone] | 0.099 µM | 0.033 µM

Stronger by IC50 (GluR2/GAPDH complex), values ahead:

Row | IC50 (GluR2/GAPDH complex) | SMILES | IC50 [1]
10 | 0.034 µM | O=C(c1ccnc(N2Cc3cn(Cc4ccc(F)cc4)nc3C2)n1)N1CCOCC1 [Compound 211, (2-(2-(4-Fluorobenzyl)-2,6-dihydropyrrolo[3,4-c]pyrazol-5(4H)-yl)pyrimidin-4-yl)(morpholino)methanone] | 0.044 µM
11 | 0.033 µM | COc1ccc(Cn2cc3c(n2)CN(c2cccc(C(=O)N(C)C)c2)C3)cc1 [Compound 233, 3-(2-(4-Methoxybenzyl)-2,6-dihydropyrrolo[3,4-c]pyrazol-5(4H)-yl)-N,N-dimethylbenzamide] | 0.062 µM
12 | 0.031 µM | CN1CCN(C(=O)c2ccnc(N3Cc4cn(Cc5ccc(F)cc5)nc4C3)n2)CC1 [Compound 212, (2-(2-(4-Fluorobenzyl)-2,6-dihydropyrrolo[3,4-c]pyrazol-5(4H)-yl)pyrimidin-4-yl)(4-methylpiperazin-1-yl)methanone] | 0.02 µM
13 | 0.03 µM | CN(C)C(=O)c1cccc(N2Cc3cn(Cc4cccc(F)c4)nc3C2)c1 [Compound 237, 3-(2-(3-Fluorobenzyl)-2,6-dihydropyrrolo[3,4-c]pyrazol-5(4H)-yl)-N,N-dimethylbenzamide] | 0.047 µM
14 | 0.02 µM | O=C(NC1CCCC1)c1ccnc(N2Cc3cn(Cc4ccc(F)cc4)nc3C2)n1 [Compound 213] | 0.024 µM
